Results on one molecule are retold here after patent EP0073505B1, “Benzo-heterocycles” (priority 1981, dated 1983).

Structures are written as SMILES.

The assay deals with Meerschweinchen. In words: Heart rate increase in the guinea pig, i.v. The class given is in vivo. The settings on record: selectivity Broncholyse vs. Herzfrequenzsteigerung. The text has this: Für die pharmakologischen Prüfungen werden die üblichen Testmethoden und Versuchstiere oder Organe verwendet. Pharmakologisch sind die erfindungsgemässen Verbindungen gegenüber Handelsprodukten der gleichen Indikation zum Teil sehr deutlich unterschieden. Neben einer guten Wirkungsdauer zeigt sich z.B. eine besonders deutliche Selektivität im Verhältnis Broncholyse zu Herzfrequenzsteigerung. So ist z. […] Günstig sind im allgemeinen auch die Resorptionsverhältnisse. So ist der Resorptionsquotient [formula] z.B. für die Verbindung 7 der Tabelle 3 nur 1,1, so dass die orale Wirkung praktisch ebenso gross ist wie die intravenöse. Die LD50-Werte liegen, z.B. an der Maus, so weit über der therapeutischen Dosis, dass eine günstige therapeutische Breite gegeben ist.

On to `CC[C@H](NC(C)C)[C@H](O)c1ccc(O)c2c1OCC(=O)N2` (relative stereo) [Beispiel 1], for which the “ED50 i.v. der Herzfrequenzsteigerung relative to ED50 i.v. der Broncholyse” value is given as “mehr als zehnmal so gross”.
